{"source": "patent US20220040263A1", "about": "“COMPANION DIAGNOSTIC FOR COMBINATION LENALIDOMIDE AND ERYTHROPOIETIN TREATMENT” (H. Lee Moffitt Cancer Center and Research Institute, Inc., priority 2016, published 2022)", "key": {"MDS BM-MNC": {"tested_on": "MDS BM-MNC", "assay": "Clonogenic (colony forming) assay of MDS BM-MNC pretreated with lenalidomide, plated with EPO", "assay_type": "cell-based, human", "experimental": "(§1) FIGS. 1A and 1B show Lenalidomide potentiates clonogenic response to […]. […] Colonies were scored after 14 days incubation and the growth of bone marrow colony-forming unit granulocyte, erythroid, macrophage, megakaryocyte (CFU-GEMM); burst-forming unit-erythroid (BFU-E); and colony-forming unit granulocyte-macrophage (CFU-GM) assessed. […] Cells were then plated in methylcellulose+10% FBS, 2000 cells/well, with or without erythropoietin (EPO). Colonies were scored at day seven.\nTo investigate the mechanism by which lenalidomide promotes erythropoiesis, the effect of lenalidomide on erythroid progenitor colony forming capacity was evaluated in lower risk patients [FIG. 1A]. Two-hour exposure to lenalidomide prior to initiation of BM-MNC in methylcellulose culture enhanced BFU-E formation over a concentration range of 0.001-1.0 μM. […] Erythroid progenitor cell lines were next evaluated to identify a model for investigation of the mechanism of lenalidomide's erythroid promoting effect."}, "UT-7 cells": {"tested_on": "UT-7 cells", "assay": "UT7 colony forming assay with or without EPO", "assay_type": "cell-based", "experimental": "as §1\nWhen UT7 cells were exposed to lenalidomide prior to culture initiation with EPO, supra-additive colony forming capacity was observed that exceeded growth induced by EPO and/or lenalidomide treatments [P=0.001]."}, "STAT5 [1]": {"tested_on": "STAT5", "assay": "STAT5 phosphorylation in UT7 cells by Western immunoblot", "assay_type": "cell-based", "experimental": "FIGS. 2A and 2B show potentiation of STAT 5 activation by lenalidomide. […] Whole cell lysates were assayed for actin (Sigma), STAT5 and phospho-STAT5 (Cell Signaling) by Western immunoblot as previously described. […] K562 leukemia cells served as a positive control.\nTo determine if lenalidomide modulates EPO-R signaling to enhance cytokine induced clonogenic response, STAT5 phosphorylation and its nuclear trans-activation was evaluated after treatment with either lenalidomide or EPO alone, or the combination [FIG. 2A]."}, "STAT5 [2]": {"tested_on": "STAT5", "assay": "EPO-induced phospho-STAT5 MFI in CD71+ primary MDS cells by flow cytometry", "assay_type": "cell-based, human", "experimental": "BM-MNC were serum deprived in IMDM and 0.4% BSA for 1 hour, then treated as described in FIG. 5. RHu-EPO stimulated cells were treated 5 U/ml×15 minutes at 37° C. Cells were fixed in BD Cytofix (Beckon Dickenson) ×10 minutes, washed in BD Stain Buffer then re-suspended in ice cold 90% methanol. After washing ×2, cells were stained with anti-pSTAT5-phycoerthryin (PE) conjugated antibody and CD71-allophycocyanin (APC) conjugated antibody [20 μg/10^6 cells]. Cells were washed ×2 with stain buffer before transfer to FACScan tubes and analysis on the FACScan flow cytometer. The gated CD71+ cell population accounted for 11.35% of BM-MNC. Results reflect phospho-STAT5:PE MFI in a representative patient specimen. Anti-pSTAT5, CD71-APC and CD34-APC antibodies were purchased from BD-Pharmingen.\nTo confirm that lenalidomide enhances STAT5 phosphorylation in erythroid precursors from primary BM specimens, BM specimens were evaluated from Low- or Intermediate-1 risk MDS by flow cytometry. As in the UT7 cell line, lenalidomide increased EPO-induced phosphorylation of STAT5 in CD71+ erythroid precursors, whereas lenalidomide alone had no effect on STAT5 phosphorylation [FIG. 3]. The STAT5 phosphorylation delta (PD), i.e., the increase in mean fluorescence intensity (MFI) for EPO-induced STAT5 phosphorylation with the addition of lenalidomide compared to EPO alone was 43.5 relative MFI units, representing a 24% increase in pSTAT5 MF."}, "[3]": {"tested_on": "LR non-del(5q) MDS patients refractory to, or not candidates for, rhEpo", "assay": "Randomized phase III trial LEN vs LEN+EA", "assay_type": "in vivo, human", "source_text": "Treatment with rhu-Epo ameliorates anemia in a subset of LR-MDS patients, however, effective salvage therapy is limited. LEN promotes erythroid lineage competence and expansion of primitive erythroid precursors in vitro. In the MDS-002 and MDS-005 trials, treatment with LEN improved erythropoiesis, yielding RBC transfusion-independence in 26% of azanucleoside-naive, transfusion-dependent (TD) LR, non-del(5q) MDS patients for a median of 10.2 and 7.75 months, respectively. LEN restores Epo-responsiveness in MDS progenitors by inducing the formation of lipid rafts enriched for signaling competent JAK2/Epo-receptor complexes with exclusion of large isoforms of the JAK2/lyn kinase-phosphatase CD45 generated by alternative splicing (McGraw K, et. al. PLoS One 2014). […] To test this hypothesis, randomized phase III trial was performed comparing treatment with LEN to LEN+EA in LR non-del(5q) MDS patients who were refractory to, or not candidates for treatment with rhEpo.\nPatients with Low or Intermediate-1 (Int-1) risk IPSS MDS with hemoglobin <9.5 g/dL who were unresponsive to rhEpo treatment or were TD (>2 units/mo) with serum Epo >500 mU/mL were eligible for study. Patients were stratified by serum Epo level and prior rhEpo (EA vs. darbepoetin vs. none) then randomized to treatment with LEN 10 mg/d×21d q4 wk (Arm A) or LEN+EA 60,000 U SC/wk (Arm B). Primary endpoint was IWG 2006 major erythroid response (MER) rate after 4 cycles. Arm A non-responders were offered cross-over to combined therapy. Secondary endpoints included analysis of response biomarkers."}, "[4]": {"tested_on": "azanucleoside-naive, transfusion-dependent LR, non-del(5q) MDS patients", "settings": "cited from earlier work"}, "[5]": {"settings": "two-hour exposure prior to methylcellulose culture"}}, "note": "Read-outs that look alike come from different tables or passages of the source."}
{"smiles": "Nc1cccc2c1CN(C1CCC(=O)NC1=O)C2=O", "note": "(centres unmarked) [lenalidomide, 3-(4-amino-1-oxo-1,3-dihydro-2H-isoindol-2-yl)piperidine-2,6-dione]", "values": [{"measurement": "growth of multipotent progenitors (CFU-GEMM)", "setting": "MDS BM-MNC; [5]", "result": "unchanged"}, {"measurement": "growth of myeloid progenitors (CFU-GM)", "setting": "MDS BM-MNC; [5]", "result": "unchanged"}, {"measurement": "concentration range over which BFU-E formation was enhanced", "setting": "MDS BM-MNC; two-hour exposure prior to methylcellulose culture with EPO, lower risk MDS BM-MNC", "result": "0.001 to 1.0", "unit": "µM"}, {"measurement": "colony forming capacity", "setting": "UT-7 cells; UT7 cells exposed to lenalidomide prior to culture initiation with EPO, P=0.001", "result": "supra-additive"}, {"measurement": "colony forming capacity", "setting": "UT-7 cells; lenalidomide 1 μM alone, UT7 cells", "result": "minimal effect"}, {"measurement": "EPO-induced phosphorylation of STAT5", "setting": "STAT5 [1]; Western immunoblot, lenalidomide followed by EPO", "result": "increased"}, {"measurement": "STAT5 phosphorylation", "setting": "STAT5 [1]; lenalidomide alone", "result": "no effect"}, {"measurement": "EPO-induced phosphorylation of STAT5", "setting": "STAT5 [2]; CD71+ erythroid precursors, Low- or Intermediate-1 risk MDS BM", "result": "increased"}, {"measurement": "STAT5 phosphorylation", "setting": "STAT5 [2]; CD71+ erythroid precursors, lenalidomide alone", "result": "no effect"}, {"measurement": "STAT5 phosphorylation delta (PD): increase in MFI for EPO-induced STAT5 phosphorylation with lenalidomide compared to EPO alone", "setting": "STAT5 [2]; CD71+ primary MDS cells, representative patient specimen", "result": 43.5, "unit": "relative MFI units"}, {"measurement": "increase in pSTAT5 MFI", "setting": "STAT5 [2]; EPO + lenalidomide compared to EPO alone, CD71+ cells", "result": 24, "unit": "%"}, {"measurement": "MER rate among patients evaluable at week 16", "setting": "[3]; 116 evaluable patients, P=0.018", "result": 14.3, "unit": "%"}, {"measurement": "major erythroid response (MER) rate, ITT analysis", "setting": "[3]; IWG 2006 MER, interim analysis of 163 patients, P=0.015", "result": 9.9, "unit": "%"}, {"measurement": "median duration of response", "setting": "[3]; MER responders", "result": "not reached"}, {"measurement": "RBC transfusion-independence", "setting": "[4]; MDS-002 and MDS-005 trials", "result": 26, "unit": "%"}, {"measurement": "median duration of RBC transfusion-independence", "setting": "[4]; MDS-002 trial", "result": 10.2, "unit": "months"}, {"measurement": "median duration of RBC transfusion-independence", "setting": "[4]; MDS-005 trial", "result": 7.75, "unit": "months"}]}
